Test results as given in patent EP0038569A2, “Deazapurine nucleosides, formulations and preparation thereof” (THE WELLCOME FOUNDATION LIMITED, priority 1980, dated 1981).
Where two headings read alike, the source gives them in different places.

Experiments:
51Cr-labelled EL4 cells = test: Assay of lymphocyte mediated cytolysis (LMC) in vitro; format: cell-based; conditions: for % lysis Reduction: in presence of ADA inhibitor EHNA 7.9 µM
Description: The test compounds were assayed in vitro by the method described in Science, (N.Y.), 187, 957 (1975). The order of addition of reagents was (1) cytotoxic lymphocytes; (2) tests compound dissolved in pyrogen-free saline; (3) ^51Cr-labelled EL4 cells. In those experiments where an adenosine deaminase (ADA) inhibitor was required erthro-9-(2-hydroxy-3-nonyl)adenine (EHNA) was added before step (2) to give a final concentration of 7.9 µM.

[1] = system: chromium-labelled heterologous (sheep) erthrocytes target cells coated with mouse anti-sheep erythrocyte serum; test: Antibody-Dependent Cellular Cytotoxicity assay in vitro; format: cell-based
Description: The title compound was tested in vitro in Antibody-Dependent Cellular Cytotoxicity assay [Perlmann, P. and Holm, G., Adv. Immunol., 11, 117, (1969)]. Mouse spleen cells from non-immunized animals served as the source of effector cells, assayed with chromium-labelled heterologous (sheep) erthrocytes target cells coated with mouse anti-sheep erythrocyte serum. The final concentration of the anti-serum in the incubation mixture was 1:66, the ratio of effector to target cells 25:1.

[2] = Carrageenan Pleurisy Assay (CPA), acute anti-inflammatory activity; format: in vivo; conditions: po, read-out: ED50, dose required to reduce the 3 hour exudate volume by 50%
From the text: Following the procedure described by Vinegar et al., in Proc. Soc. […] There were 5 animals in each drug-treated group and the control group.

[3] = system: lipoxgenase or cyclooxygenase pathway; test: Inhibition of prostaglandin metabolism in vitro; format: biochemical
[4] = Antipyretic and analgesic activity; conditions: in vivo
[5] = Duration of action and half life; conditions: in vivo
Solubility in water = format: physicochemical
[6] = Toxicity in animal models: liver damage, therapeutic index
[7] = Mus musculus, EL4, read-out: % lysis Reduction

SMILES: Nc1nc(Cl)nc2c1ncn2[C@@H]1O[C@H](CO)[C@@H](O)[C@H]1O [2-Chloro-adenosine]
- inhibition at 4.7 µM (51Cr-labelled EL4 cells; [7]): 62.2%
- inhibition at 9.4 µM (51Cr-labelled EL4 cells; [7]): 64.4%

SMILES: Nc1nc(F)nc2c1ncn2[C@@H]1O[C@H](CO)[C@@H](O)[C@H]1O [2-Fluoro-adenosine]
- inhibition at 1 µM (51Cr-labelled EL4 cells; [7]): 48.9%
- inhibition at 2 µM (51Cr-labelled EL4 cells; [7]): 60%

SMILES: Nc1nccc2c1ncn2[C@H]1C[C@H](O)[C@@H](CO)O1 [4-amino-1-(2-deoxy-β-D-ribofuranosyl)-1H-imidazo-[4,5-c]-pyridine]
- inhibition at 18.8 µM (51Cr-labelled EL4 cells; Mus musculus, EL4, Conc. 18.8 µM, read-out: % lysis Reduction): 53%
- inhibition at 37.5 µM (51Cr-labelled EL4 cells; Mus musculus, EL4, Conc. 37.5 µM, read-out: % lysis Reduction): 73%
- inhibition of lymphocyte mediated cytolysis (51Cr-labelled EL4 cells; summary statement): potent inhibitor
- inhibition at 100 µM ([1]; 100 µM, 4 hours of incubation at 37 °C, effector to target cells 25:1, read-out: inhibition of target cell-specific chromium release): 83.2%
- inhibition at 3.1 µM ([1]; 4 h): 31.2%
- inhibition at 6.2 µM ([1]; 4 h): 42.1%
- inhibition at 12.5 µM ([1]; 4 h): 55.9%
- inhibition at 25 µM ([1]; 4 h, Dose 25.0 μM): 60.2%
- IC50 ([1]; dose-response study): 6.2 to 12.5 µM
- ED50 ([2]; 3 hr. vol. p.o., mg/kg of body weight): 12 mg/kg
- inhibition of prostaglandin metabolism [3]: does not inhibit
- analgesic activity per se [4]: no analgesic activity
- antipyretic activity [4]: not antipyretic
- duration of action [5]: about 15 hours
- half life [5]: short
- solubility in water (Solubility in water): highly soluble in water
- liver damage ([6]; in the animal models used): does not cause liver damage
- therapeutic index ([6]; in vivo): high

SMILES: Nc1nccc2c1ncn2[C@@H]1O[C@H](CO)[C@@H](O)[C@H]1O [(4-amino-1-β-D-ribofur-anosyl-1H-imidazo-[4,5-c]-pyridine, reference compound]
- inhibition at 3.1 µM ([1]; 4 h): 52.3%
- inhibition at 6.2 µM ([1]; 4 h): 64.8%
- inhibition at 12.5 µM ([1]; 4 h): 66.4%

SMILES: Nc1ncnc2c1ncn2[C@@H]1O[C@H](CO)[C@@H](O)[C@H]1O [Adenosine]
- % lysis Reduction (51Cr-labelled EL4 cells; Conc. 9.4 µM): 59%
- % lysis Reduction (51Cr-labelled EL4 cells; Conc. 18.8 µM): 59%

SMILES: CC(=O)Oc1ccccc1C(=O)O [Aspirin]
- ED50 ([2]; 3 h): 28 ± 3.2 mg/kg

SMILES: C[C@]12CCC(=O)C=C1CC[C@@H]1[C@@H]2[C@@H](O)C[C@@]2(C)[C@H]1CC[C@]2(O)C(=O)CO [Hydrocortisone]
- ED50 ([2]; 3 h): 14 ± 10.2 mg/kg

SMILES: C[C@]12C=CC(=O)C=C1CC[C@@H]1[C@@H]2[C@@H](O)C[C@@]2(C)[C@H]1CC[C@]2(O)C(=O)CO [Prednisolone]
- ED50 ([2]; 3 h): 3 ± 0.5 mg/kg
